Test results reported in ChEMBL document CHEMBL4811263, “Tulipiferamide A, an Alkamide from Liriodendron tulipifera, Exhibits an Anti-Inflammatory Effect via Targeting IKKβ Phosphorylation” (J Nat Prod, 2021).

Tests used:
RAW264.7 = experiment: Antiinflammatory activity in mouse RAW264.7 assessed as inhibition of LPS-induced NO production preincubated for 30 mins followed by LPS stimulation measured after 24 hrs by Griess reagent based assay; type: functional, cell-based
[1] = Inhibition of LPS-indued NF-kappaB activation in mouse RAW264.7 cells preincubated for 30 mins followed by LPS stimulation and measured after 10 hrs by luciferase assay; type: cell-based

Row | IC50 (RAW264.7) [µM] | IC50 [1] [µM] | SMILES
1 | > 50 |  | COc1cc(/C=C/C(=O)NCCc2ccc(O)c(OC)c2)ccc1O
2 | 7.3 | 12.2 | C=C1C(=O)O[C@@H]2/C=C(\C)CC/C=C(\C)C[C@@H](O)[C@@H]12 [EUPATOLIDE]
3 | > 50 |  | COc1cc2c(cc1OC)-c1c(OC)c(OC)cc3ccnc(c13)C2=O [OXOGLAUCINE]
4 | > 50 |  | COc1cc2c3c(c1OC)-c1ccccc1C[C@H]3N(C(C)=O)CC2
5 | 34.2 | 28.5 | COc1c(OC)c2c3c(nccc3c1OC)C(=O)c1cc3c(cc1-2)OCO3 [OXOPHOEBINE]
6 | > 50 |  | COc1cc(C=O)ccc1O [VANILLIN]
7 | > 50 |  | COc1c(OC)c2c3c(nccc3c1OC)C(=O)c1ccccc1-2 [HOMOMOSCHATOLINE]
8 | > 50 |  | COc1c2c3c(c(OC)c1OC)-c1cc4c(cc1C[C@@H]3N(C(C)=O)CC2)OCO4
9 | 35.5 |  | CNC(=N)NCCC[C@H](N)C(=O)O [TILARGININE]
10 | > 50 |  | COc1cc([C@H]2Oc3c(OC)cc(CCCO)cc3[C@@H]2CO)ccc1O [DIHYDRODEHYDRODICONIFERY ALCOHOL]
11 | > 50 |  | C/C=C/c1cc(OC)c(OC(C)Cc2cc(OC)c(OC)c(OC)c2)c(OC)c1 (racemic)
12 | > 50 |  | O=C(NCCc1ccccc1)c1ccccc1
13 | 6.4 | 17.8 | COc1cc2ccnc3c2c(c1OC)-c1ccccc1C3=O [LYSICAMINE]
14 | > 50 |  | COc1cc(C(=O)C2CO[C@H](c3cc(OC)c(O)c(OC)c3)[C@H]2CO)cc(OC)c1O (some centres not stated)
15 | 12 | 14.1 | C=C[C@]1(C)C[C@H](O)[C@H]2C(=C)C(=O)O[C@@H]2[C@H]1C(=C)C
16 | > 50 |  | CCCCC/C=C/C=C\C(=O)NCCc1ccccc1
17 | > 50 |  | COc1c2c(c3c4c(nccc14)C(=O)c1ccccc1-3)OCO2
18 | > 50 |  | CC(=O)N1CCc2cc3c(c4c2[C@H]1Cc1ccccc1-4)OCO3
